This is an account of results in PMC12948223, “HSP70 Interactome‐Mediated Proteolysis Targeting Chimera (HSP70‐PROTAC) for Ferroptosis‐Driven Cancer Treatment” (Advanced Science, 2025).

As usually defined, the IC50 is the concentration at which inhibition is half-maximal.

The structures appear in SMILES notation.

The first test relates to HT1080 cells. The test is described as follows: Cell viability CCK-8 assay. The note with it: Homo sapiens, HT-1080, CCK-8, 48 h, read-out: IC50 (cytotoxicity). It counts as cell-based, human. The procedure:
To determine whether GPX4 degradation following treatment with HSP70‐PROTACs triggers cancer cell ferroptosis, we initially assessed the viability of HT1080 cells using the CCK‐8 assay after treatment with various concentrations of the tested compounds for 48 h. GPX4 inhibitor ML162, HSP70 inhibitor apoptozole, and two GPX4 non‐degradable HSP70‐PROTAC molecules, GDAz‐Neg1 and GDAz‐Neg2, were selected as controls. […] This remarkable activity might partly be ascribed to the high cell permeability conferred by the piperazine ring. […] We speculated that the potent anti‐proliferative activity of GDAz‐Neg2 may be attributed to the GPX4 inhibition.
The compounds under investigation were initially dissolved in dimethyl sulfoxide (DMSO) to generate stock solutions with a concentration of 10 mM. HT1080 cells or other tested cells were seeded in 96‐well plates at a density of 3000–5000 cells well^−1 and cultured at 37 °C. Following a 24‐h incubation period, the tested compounds were added to the wells at various concentrations (the DMSO stock solutions of all the tested compounds were diluted with culture medium to obtain the designated concentration containing a final concentration of DMSO less than 0.5% (v/v)). The cells were then cultured for an additional 48 or 72 h. Cell Counting Kit 8 (CCK‐8) assay was conducted to examine the effects of the tested compounds on cell viability, and the absorbance was measured at a wavelength of 450 nm. The IC50 values were determined utilizing GraphPad Prism software through nonlinear regression analysis. All experiments were independently repeated at least three times.
`COc1ccc(-c2nc(-c3cc(C(F)(F)F)cc(C(F)(F)F)c3)n(Cc3ccc(C(=O)NCCCCNC(=O)Cn4cc(COc5ccc(N(C(=O)CCl)C(C(=O)NCCc6ccccc6)c6cccs6)cc5Cl)nn4)cc3)c2-c2ccc(OC)cc2)cc1` (stereo not drawn) [GDAz-8, 4-((2-(3,5-bis(trifluoromethyl)phenyl)-4,5-bis(4-methoxyphenyl)-1H-imidazol-1-yl)methyl)-N-(4-(2-(4-((2-chloro-4-(2-chloro-N-(2-oxo-2-(phenethylamino)-1-(thiophen-2-yl)ethyl)acetamido)phenoxy)methyl)-1H-1,2,3-triazol-1-yl)acetamido)butyl)benzamide]: the concentration for half-maximal inhibition (IC50) was 130 ± 40 nM.
Same read-out and setting: to `COc1ccc(-c2nc(-c3cc(C(F)(F)F)cc(C(F)(F)F)c3)n(Cc3ccc(C(=O)NCCNC(=O)Cn4cc(COc5ccc(N(C(=O)CCl)C(C(=O)NCCc6ccccc6)c6cccs6)cc5Cl)nn4)cc3)c2-c2ccc(OC)cc2)cc1` (stereo not drawn) [GDAz-6, 4-((2-(3,5-bis(trifluoromethyl)phenyl)-4,5-bis(4-methoxyphenyl)-1H-imidazol-1-yl)methyl)-N-(2-(2-(4-((2-chloro-4-(2-chloro-N-(2-oxo-2-(phenethylamino)-1-(thiophen-2-yl)ethyl)acetamido)phenoxy)methyl)-1H-1,2,3-triazol-1-yl)acetamido)ethyl)benzamide] belongs 350 ± 80 nM.
Regarding `COc1ccc(-c2nc(-c3cc(C(F)(F)F)cc(C(F)(F)F)c3)n(Cc3ccc(C(=O)NC4CCN(C(=O)Cn5cc(COc6ccc(N(C(=O)CCl)C(C(=O)NCCc7ccccc7)c7cccs7)cc6Cl)nn5)CC4)cc3)c2-c2ccc(OC)cc2)cc1` (stereo not drawn) [GDAz-11, 4-((2-(3,5-bis(trifluoromethyl)phenyl)-4,5-bis(4-methoxyphenyl)-1H-imidazol-1-yl)methyl)-N-(1-(2-(4-((2-chloro-4-(2-chloro-N-(2-oxo-2-(phenethylamino)-1-(thiophen-2-yl)ethyl)acetamido)phenoxy)methyl)-1H-1,2,3-triazol-1-yl)acetyl)piperidin-4-yl)benzamide], the IC50 is > 30000 nM.
On to `COc1ccc(-c2nc(-c3cc(C(F)(F)F)cc(C(F)(F)F)c3)n(Cc3ccc(C(=O)NCCC4CCN(C(=O)Cn5cc(COc6ccc(N(C(=O)CCl)C(C(=O)NCCc7ccccc7)c7cccs7)cc6Cl)nn5)CC4)cc3)c2-c2ccc(OC)cc2)cc1` (stereo not drawn) [GDAz-13, 4-((2-(3,5-bis(trifluoromethyl)phenyl)-4,5-bis(4-methoxyphenyl)-1H-imidazol-1-yl)methyl)-N-(2-(1-(2-(4-((2-chloro-4-(2-chloro-N-(2-oxo-2-(phenethylamino)-1-(thiophen-2-yl)ethyl)acetamido)phenoxy)methyl)-1H-1,2,3-triazol-1-yl)acetyl)piperidin-4-yl)ethyl)benzamide], for which the 50% inhibitory concentration (IC50) is > 30000 nM.
Still for that read-out and setting: to `COc1ccc(-c2nc(-c3cc(C(F)(F)F)cc(C(F)(F)F)c3)n(Cc3ccc(C(=O)NCCCCCCNC(=O)Cn4cc(COc5ccc(N(C(=O)CCl)C(C(=O)NCCc6ccccc6)c6cccs6)cc5Cl)nn4)cc3)c2-c2ccc(OC)cc2)cc1` (stereo not drawn) [GDAz-10, 4-((2-(3,5-bis(trifluoromethyl)phenyl)-4,5-bis(4-methoxyphenyl)-1H-imidazol-1-yl)methyl)-N-(6-(2-(4-((2-chloro-4-(2-chloro-N-(2-oxo-2-(phenethylamino)-1-(thiophen-2-yl)ethyl)acetamido)phenoxy)methyl)-1H-1,2,3-triazol-1-yl)acetamido)hexyl)benzamide] belongs > 30000 nM; to `COc1ccc(-c2nc(-c3cc(C(F)(F)F)cc(C(F)(F)F)c3)n(Cc3ccc(C(=O)NCCOCCOCCn4cc(COc5ccc(N(C(=O)CCl)C(C(=O)NCCc6ccccc6)c6cccs6)cc5Cl)nn4)cc3)c2-c2ccc(OC)cc2)cc1` (stereo not drawn) [GDAz-2, 4-((2-(3,5-bis(trifluoromethyl)phenyl)-4,5-bis(4-methoxyphenyl)-1H-imidazol-1-yl)methyl)-N-(2-(2-(2-(4-((2-chloro-4-(2-chloro-N-(2-oxo-2-(phenethylamino)-1-(thiophen-2-yl)ethyl)acetamido)phenoxy)methyl)-1H-1,2,3-triazol-1-yl)ethoxy)ethoxy)ethyl)benzamide], 390 ± 110 nM; to `COc1ccc(-c2nc(-c3cc(C(F)(F)F)cc(C(F)(F)F)c3)n(Cc3ccc(C(=O)NCCOCCOCCOCCOCCOCCn4cc(COc5ccc(N(C(=O)CCl)C(C(=O)NCCc6ccccc6)c6cccs6)cc5Cl)nn4)cc3)c2-c2ccc(OC)cc2)cc1` (stereo not drawn) [GDAz-5, 4-((2-(3,5-bis(trifluoromethyl)phenyl)-4,5-bis(4-methoxyphenyl)-1H-imidazol-1-yl)methyl)-N-(17-(4-((2-chloro-4-(2-chloro-N-(2-oxo-2-(phenethylamino)-1-(thiophen-2-yl)ethyl)acetamido)phenoxy)methyl)-1H-1,2,3-triazol-1-yl)-3,6,9,12,15-pentaoxaheptadecyl)benzamide], 210 ± 30 nM.
Same read-out and setting: as for `COc1ccc(-c2nc(-c3cc(C(F)(F)F)cc(C(F)(F)F)c3)n(Cc3ccc(C(=O)N4CCN(C(=O)Cn5cc(COc6ccc(N(C(=O)CCl)C(C(=O)NCCc7ccccc7)c7cccs7)cc6Cl)nn5)CC4)cc3)c2-c2ccc(OC)cc2)cc1` (stereo not drawn) [GDAz-14, N-(4-((1-(2-(4-(4-((2-(3,5-bis(trifluoromethyl)phenyl)-4,5-bis(4-methoxyphenyl)-1H-imidazol-1-yl)methyl)benzoyl)piperazin-1-yl)-2-oxoethyl)-1H-1,2,3-triazol-4-yl)methoxy)-3-chlorophenyl)-2-chloro-N-(2-oxo-2-(phenethylamino)-1-(thiophen-2-yl)ethyl)acetamide], the figure is 120 nM; as for `COc1ccc(-c2nc(-c3cc(C(F)(F)F)cc(C(F)(F)F)c3)n(Cc3ccc(C(=O)NCC4CCN(C(=O)Cn5cc(COc6ccc(N(C(=O)CCl)C(C(=O)NCCc7ccccc7)c7cccs7)cc6Cl)nn5)CC4)cc3)c2-c2ccc(OC)cc2)cc1` (stereo not drawn) [GDAz-12, 4-((2-(3,5-bis(trifluoromethyl)phenyl)-4,5-bis(4-methoxyphenyl)-1H-imidazol-1-yl)methyl)-N-((1-(2-(4-((2-chloro-4-(2-chloro-N-(2-oxo-2-(phenethylamino)-1-(thiophen-2-yl)ethyl)acetamido)phenoxy)methyl)-1H-1,2,3-triazol-1-yl)acetyl)piperidin-4-yl)methyl)benzamide], > 30000 nM.

A further test has as its target T1, GPX4 (Homo sapiens, UniProt P36969).
T1 sequence (P36969 1-170 isoform P36969-2): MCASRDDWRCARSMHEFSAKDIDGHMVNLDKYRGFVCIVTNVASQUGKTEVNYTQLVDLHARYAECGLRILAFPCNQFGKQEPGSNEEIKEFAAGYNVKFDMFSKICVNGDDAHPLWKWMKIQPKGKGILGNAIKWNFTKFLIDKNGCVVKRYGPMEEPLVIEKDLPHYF
Briefly: GPX4 degradation by western blot in HT1080 cells. It counts as cell-based. The arrangement: determine the changes in the endogenous levels of GPX4 by western blot assay; endogenous in cells; host or cells: HT1080 fibrosarcoma cells, including siRNA-knockdown derivatives. Conditions: HT1080 cells, 24 h, concentration over 5 µM. The procedure:
To evaluate the GPX4 degradation efficiency of the synthesized HSP70‐PROTACs GDAz‐1–14, we first selected ferroptosis‐sensitive HT1080 fibrosarcoma cells (highly‐expressing GPX4) treated with different concentrations (0.1, 0.3, 1, and 3 µM) of these chimeras to determine the changes in the endogenous levels of GPX4 by western blot assay after 24 h treatment. […] This finding underscores the crucial role of the linker in HSP70‐PROTAC‐mediated protein degradation. […] In the case of alkyl chain derivatives (GDAz‐6–10), elongating the length of the linker generally led to a decreased GPX4 degrading activity. […] Thus, GDAz‐3 was selected for further evaluation.
Cells were seeded at a density of 4 × 10^5 cells well^−1 in 6‐well plates and allowed to incubate overnight. Cells were incubated with the indicated treatments. Thereafter, the cells were collected and lysed with RIPA buffer containing serine protease and phosphatase inhibitors for 30 min on ice. Proteins were quantified by using a BCA protein assay kit (Beyotime). Subsequently, SDS‐PAGE sample loading buffer was added, and the mixture was heated in a 100 °C metal bath for 10 min to denature the proteins. Protein samples from each group were separated by SDS‐PAGE gel and transferred to a PVDF membrane. After blocking with 5% skim milk for 1 h at room temperature, primary antibodies (GPX4: abcam (#ab125066, 1:1000); Hsp70: abcam (#ab2787, 1:1000); CHIP: HUABIO (#ST7108, 1:1000); UpingBio Technology Co., Ltd. (BRD4, #YP‐Ab‐18034, 1:1000; BAG‐1, #YP‐Ab‐00575, 1:1000); GAPDH: Proteintech (#60004‐1‐Ig, 1:50 000)) were used and incubated at 4 °C overnight on a rotary shaker. After washing the membranes with TBST buffer five times, the membranes were incubated with a second antibody (Cell Signaling Technology, #7074S, 1:1000 and #7076S, 1:1000) at room temperature for 2 h. Ultimately, the membrane was washed five times, and the antibody‐protein complexes were visualized using an ECL luminescence reagent (Biosharp, Shanghai, China). The relative intensities of the bands were analyzed by ImageJ and normalized to a loading control.
(A western blot detects proteins with antibodies after separation by electrophoresis.)
With `COc1ccc(-c2nc(-c3ccc(OCc4cn(CCOCCOCCOCCNC(=O)CCCC[C@@H]5SC[C@@H]6NC(=O)N[C@@H]65)nn4)cc3)n(Cc3ccc(C(=O)NCCOCCOCCOCCn4cc(COc5ccc(N(C(=O)CCl)C(C(=O)NCCc6ccccc6)c6cccs6)cc5Cl)nn4)cc3)c2-c2ccc(OC)cc2)cc1` (stereo partly drawn) [GDAz-biotin], the “GPX4 degradation activity of the probe” value is reported as “considerable GPX4 degradation activity”.

The same test, now with this note: HT1080 cells, 24 h, tested concentrations (Figure 4A).
As to `COc1ccc(-c2nc(-c3cc(C(F)(F)F)cc(C(F)(F)F)c3)n(Cc3ccc(C(=O)NCCOCCOCCOCCn4cc(COc5ccc(N(C(=O)CO)C(C(=O)NCCc6ccccc6)c6cccs6)cc5Cl)nn4)cc3)c2-c2ccc(OC)cc2)cc1` (stereo not drawn) [GDAz-OH], the “GPX4 degradation by negative control compounds” value is on record as “none of the compounds effectively triggered GPX4 degradation”.

Staying with this test, now noted: HT-1080, HT1080 cells, MLN4924 2.5 µM alone; read-out: GPX4 % of control.
In the case of `NS(=O)(=O)OC[C@@H]1C[C@@H](n2ccc3c(N[C@H]4CCc5ccccc54)ncnc32)C[C@@H]1O` [MLN4924, reference compound], the remaining activity at 2.5 µM was found to be 96%.
